Results taken from patent publication US20210177023A1, “COMPOUNDS FOR SWEETNESS ENHANCEMENT” (International Flavors & Fragrances Inc., priority 2019, published 2021).

Key:
Assay type in all cases: in vivo, human
[1] = Taste and smell of the compound alone
Procedure: A sucrose solution (4%) was prepared in water. Each of ligustrosidic acid and 2′-hydroxy ligustrosidic acid solutions of different concentrations was prepared in ethanol solution in water (50%). Ligustrosidic acid and 2′-hydroxy ligustrosidic acid were evaluated at 1 and 200 ppm, respectively. […] A sucrose solution (4%) was prepared in water. Each of verbascoside and isoverbascoside solutions of different concentrations was prepared in ethanol solution in water (50%). Verbascoside and isoverbascoside were evaluated at 1 and 200 ppm, respectively.

[2] = Enhancement of sucrose sweetness (flavor profile of sucrose solution with added substance); details: sucrose solution (4%); for overall effect when used with sucrose (summary in text): over the levels tested; for effect observed in sucrose solution: compound 5 ppm
Procedure: A sucrose solution (4%) was prepared in water. Each of ligustrosidic acid and 2′-hydroxy ligustrosidic acid solutions of different concentrations was prepared in ethanol solution in water (50%). Ligustrosidic acid and 2′-hydroxy ligustrosidic acid were evaluated at 1 and 200 ppm, respectively. […] Solutions of Chaenomeles speciosa leave extract containing ligustrosidic acid (0.61%), 2′-hydroxy ligustrosidic acid (0.62%), verbascoside (0.69%) and isoverbascoside (0.21%) were prepared in ethanol solution in water (50%) to obtain a series of concentrations ranging from 1 to 1000 ppm. Solutions of sucrose (4%) and Luo Han Guo (120 ppm) were prepared as above (EXAMPLE II and III). In addition, solutions of fructose (3.4%), Reb A (GLG Life Tech Corporation, Canada) (90 ppm) and GSG (Glucosyl Steviol Glucosides, GLG Life Tech Corporation, Canada) (200 ppm) were also prepared in water. The sucrose solution (4%) with the addition of various amount of Chaenomeles speciosa leave extract was evaluated. […] Each of verbascoside and isoverbascoside solutions of different concentrations was prepared in ethanol solution in water (50%). Verbascoside and isoverbascoside were evaluated at 1 and 200 ppm, respectively.

[3] = Enhancement of Luo Han Guo sweetness (flavor profile of Luo Han Guo solution with added substance); details: Luo Han Guo solution (120 ppm), over the levels tested
Procedure: A Luo Han Guo (Biovittoria Ltd., New Zealand) solution was prepared in water (120 ppm). Ligustrosidic acid and 2′-hydroxy ligustrosidic acid solutions were prepared as above (EXAMPLE II). The flavor profile of the Luo Han Guo solution with added ligustrosidic acid and 2′-hydroxy ligustrosidic acid is reported in the following: The effect of botanical extract such as Chaenomeles speciosa leave extract on sweetness was examined. Solutions of Chaenomeles speciosa leave extract containing ligustrosidic acid (0.61%), 2′-hydroxy ligustrosidic acid (0.62%), verbascoside (0.69%) and isoverbascoside (0.21%) were prepared in ethanol solution in water (50%) to obtain a series of concentrations ranging from 1 to 1000 ppm. Solutions of sucrose (4%) and Luo Han Guo (120 ppm) were prepared as above (EXAMPLE II and III). In addition, solutions of fructose (3.4%), Reb A (GLG Life Tech Corporation, Canada) (90 ppm) and GSG (Glucosyl Steviol Glucosides, GLG Life Tech Corporation, Canada) (200 ppm) were also prepared in water. The Luo Han Guo solution (120 ppm) with the addition of various amount of Chaenomeles speciosa leave extract was evaluated. The flavor profile is as follows: A Luo Han Guo (Biovittoria Ltd., New Zealand) solution was prepared in water (120 ppm). Verbascoside and isoverbascoside solutions were prepared as above (EXAMPLE XIII). The flavor profile of the Luo Han Guo solution with added verbascoside and isoverbascoside is reported in the following: […]

Compound | taste and smell of the compound itself ([1]; evaluated at 1 ppm) | taste and smell of the compound itself ([1]; evaluated at 200 ppm) | overall effect when used with sucrose (summary in text) [2] | overall effect when used with Luo Han Guo (summary in text) [3] | effect observed in sucrose solution [2] | also measured
COC(=O)C1=COC(OC2OC(CO)C(O)C(O)C2O)C(=CC(=O)O)C1CC(=O)OCCc1ccc(O)cc1 (stereo in doubt) [Ligustrosidic Acid, [3-(carboxymethylene)-2-(β-D-glucopyranosyloxy)-3,4-dihydro-5-(methoxycarbonyl)]-2H-pyran-4-acetic acid-α-[2-(4-hydroxyphenyl)ethyl] ester] | devoid of taste and smell | – | – | – | – | overall effect when used with sucrose (summary in text) ([2]; listed as Ligustrosidic acid): particularly strong effect; overall effect when used with sucrose (summary in text) ([2]; listed as ligustrosidic acid): enhanced overall sweetness, body and mouthfeel; overall effect when used with Luo Han Guo (summary in text) ([3]; listed as Ligustrosidic acid): particularly strong effect; overall effect when used with Luo Han Guo (summary in text) ([3]; listed as ligustrosidic acid): enhanced overall sweetness, body and mouthfeel
C[C@@H]1O[C@@H](O[C@@H]2[C@@H](O)[C@H](OCCc3ccc(O)c(O)c3)O[C@H](COC(=O)/C=C/c3ccc(O)c(O)c3)[C@H]2O)[C@H](O)[C@H](O)[C@H]1O [Isoverbascoside, isoverbascoside] | – | devoid of taste and smell | enhanced overall mouthfeel | enhanced overall mouthfeel and suppressed Luo Han Guo's lingering off-taste | – | –
C/C=C1\C(OC2OC(CO)C(O)C(O)C2O)OC=C(C(=O)OCCc2ccc(O)c(O)c2)C1CC(=O)OCCc1ccc(O)c(O)c1 (stereo not shown) [multifloroside] | – | – | – | – | Some mouthfeel, slight drying or slightly fruity effect | –
2′-hydroxy ligustrosidic acid | – | devoid of taste and smell | strong effect in sweetness enhancement | strong effect in sweetness enhancement | – | –
C/C=C1/[C@H](O[C@@H]2O[C@H](CO)[C@@H](O)[C@H](O)[C@H]2O)OC=C(C(=O)OC)[C@H]1CC(=O)OCCc1ccc(O)cc1 [ligustroside] | – | – | – | – | Some mouthfeel, slight drying or slightly fruity effect | –
C[C@@H]1O[C@@H](O[C@@H]2[C@@H](O)[C@H](OCCc3ccc(O)c(O)c3)O[C@H](CO)[C@H]2OC(=O)/C=C/c2ccc(O)c(O)c2)[C@H](O)[C@H](O)[C@H]1O [Verbascoside, (E)-2-(3,4-dihydroxyphenyl)ethyl 3-O-(6-deoxy-α-L-mannopyranosyl)-4-[3-(3,4-dihydroxyphenyl)-2-propenoate]-β-D-Glucopyranoside] | devoid of taste and smell | – | particular effect in sweetness enhancement | particular effect in sweetness enhancement | – | –
